Data published in patent publication US6685960B1, “Solid lipidic nanospheres suitable to a fast internalization into cells” (priority 1998, dated 2004).

How the values were obtained:
[1] = tested on: NIH-H460 cells of lung carcinoma; assay: Inhibition of cell proliferation, NIH-H460 cells counted by Cell Counter; type: cell-based
Experimental: The experimentation has been carried out on NIH-H460 cells of lung carcinoma (D. N. Carney et al., Cancer Res., 45, 2913-2923, 1985) grown in monolayer in the RPMI 1640 nutrient medium (Bio Whittaker, Verviers, Belgium) added with 10% by volume with respect to the total volume of FCS (Fetal Calf Serum), at the temperature of 37° C., in a CO2 atmosphere humidified at 5%.
The cells have been put in 24 wells plates, using as nutrient medium RPMI 1640 added with 10% of FCS, and left to adhere for 24 hours. The insemination medium has been then removed and substituted with the experimental medium consisting of RPMI 1640 with 10% of FCS and increasing concentrations of sodium butyrate, or of cholesteryl butyrate in form of nanospheres prepared as in the above reported example 1. The cells have been kept for 6 days in contact with such experimental medium.
The effect of the sodium butyrate and of cholesteryl butyrate on the cell growth has been estimated counting the cells by a Cell Counter.

[2] = tested on: cells of the mastocarcinoma, MCF7; assay: Inhibition of cell proliferation, MCF7 cells counted by Cell Counter; type: cell-based; settings: Homo sapiens, MCF7, 144 h, read-out: inhibition of the cell growth
Experimental: The above described experiment has been repeated on cells of the mastocarcinoma, identified with the MCF7 abbreviation, using as insemination medium DMEM/F12 (Dulbecco's modified Eagle's medium, Sigma Chemical Co., St. Louis, Mo.) with 2% FCS.
Said cells have been placed in 12 well plates, where they have been left to adhere for 24 hours in the above described nutrition medium.
The nutrient medium has been then removed and substituted with the experimental medium consisting of DMEM/F12 with 10% FCS added with increasing concentrations of sodium butyrate, or of cholesteryl butyrate in form of nanospheres prepared according to the above reported example 2. The cells have been kept for 6 days in contact with such experimental medium.
The antiproliferative effect of the cholesteryl butyrate nanospheres on the cell growth has been estimated counting the cells with a Cell Counter.

| SMILES | effect on the cell proliferation ([1]; comparison test, additive of the experimental medium RPMI 1640 with 10% FCS) | inhibition at 200 µM [2] [%] | inhibition at 210 µM ([1]; NIH-H460, 144 h, read-out: inhibition of the cell growth) [%] |
| --- | --- | --- | --- |
| CC(C)CCC[C@@H](C)[C@H]1CC[C@H]2[C@@H]3CC=C4C[C@@H](O)CC[C@]4(C)[C@H]3CC[C@]12C [cholesterol] | does not affect the cell proliferation in any way | – | – |
| CCCC(=O)[O-].[Na+] [sodium butyrate] | – | 40 | 50 |
